In the METLIN SMRT retention time set (Domingo-Almenara et al. 2019):

Assay: gradient 5% acetonitrile 3 min, to 50% in 2 min, to 85% in 15 min, held 3 min, 100 µL/min
Settings: column: Zorbax Extend-C18 2.1 x 50 mm; eluents: water / acetonitrile, 0.1% formic acid
Outline: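 Values are retention times taken from adduct peaks that software picked and an analyst inspected. The pure standards were run as mixtures of ~100 molecules on HPLC linked to a quadrupole time-of-flight mass spectrometer, in positive and negative ionization mode. A Zorbax Extend-C18 column (2.1 × 50 mm, 1.8 μm) was used at 100 μL/min with water and acetonitrile, each including 0.1% formic acid.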

Row | SMILES | RP-LC retention time [s]
1 | Cc1cccc(NC(=O)N2CCCC2c2nc(-c3ccccc3)no2)c1 (stereo not drawn) | 984
2 | COc1ccc2c(c1)C1(CCN(C(=O)c3ccc(C#N)cc3)C1)C(=O)N2C (stereo not drawn) | 735
3 | c1ccc(COCCc2noc(C3CCCN3)n2)cc1 (stereo not drawn) | 614
4 | CCc1nnc([C@@H]2CC(F)(F)CN2C(=O)c2n[nH]c3ccccc23)o1 | 734
5 | Cc1ccc(NC(=O)N(C)Cc2ccoc2)cc1 | 647
6 | CC(C)CN1C(=O)c2cccn2CC1C(=O)NCC1CCCCC1 (stereo not drawn) | 828
7 | COc1ccc(C(=O)N2CC(N3CC(C(=O)N4CCCC4)CC3=O)C2)cc1F (stereo not drawn) | 639
8 | Cn1c(SCC(=O)N2CCCCC2)nnc1-c1ccc2c(c1)OCCCO2 | 664
9 | CN1CCN(c2ncncc2N2CCC(C(=O)NCc3ccc(F)cc3Cl)CC2)CC1 | 572
10 | Fc1ccc(C2Cn3nnc(-c4nc(-c5ccc(OC(F)(F)F)cc5)no4)c3CO2)cc1 (stereo not drawn) | 1250
11 | CC(C)CN1C(=O)c2cccn2CC1C(=O)N1CCCC1 (stereo not drawn) | 674
12 | CCC(C)NC(=O)Cn1ccn2nc(-c3ccc(F)cc3)c(CO)c2c1=O (stereo not drawn) | 725
13 | O=C(NCCc1ccccc1)NC1CCCN(c2cc(-c3ccncc3)[nH]n2)C1 (stereo not drawn) | 620
14 | CCCn1cc(C(=O)Nc2ccc3c(c2)OCCO3)c2cccnc21 | 833
15 | O=C(Cc1cccc(F)c1)N1CCN(C(=O)c2nnn3c2COC(c2ccccc2)C3)CC1 (stereo not drawn) | 854
16 | CCCNS(=O)(=O)c1cc(-c2c(CC)noc2NC(C)=O)ccc1OC | 774
17 | CS(=O)(=O)Nc1ccc(C2(C(=O)NCc3ccc(F)cc3)CCCCC2)cc1 | 897
18 | CC(NC(=O)c1ccccc1)c1nc(-c2ccc(NS(C)(=O)=O)cc2)no1 (stereo not drawn) | 766
19 | Fc1ccccc1-c1noc(-c2nc(-c3ccncc3)no2)n1 | 951
20 | CC(C)N1C(=O)c2cccnc2Sc2cc(NC(=O)C3CC3)ccc21 | 733

Row | SMILES | RP-LC retention time [s]
21 | O=C(c1ccc(Br)o1)N1CCN(c2ccc(NCc3ccccc3)nn2)CC1 | 668
22 | CCCN1C(=O)COc2ccc(-c3noc(-c4cccc(NC(C)=O)c4)n3)cc21 | 925
23 | CCOc1ccccc1NS(=O)(=O)c1cc(-c2c(CC)noc2NC(C)=O)ccc1C | 846
24 | COC(=O)c1c(NCCc2ccccc2)c2cccc(Cl)c2[nH]c1=O | 825
25 | Cc1cc(C)c(S(=O)(=O)N2CCc3c(c(-c4nnc(-c5ccc(F)cc5)o4)nn3C)C2)c(C)c1 | 1090
26 | COCCNC(=O)C1COC2(CCCCC2)N1C(=O)c1cccc(C(F)(F)F)c1 (stereo not drawn) | 814
27 | O=C(Nc1nc(C(=O)NCc2nc(-c3ccccc3)no2)co1)c1ccsc1 | 707
28 | CC1CN(c2ccc(Cl)cc2)c2nc3c(c(=O)n(CCN4CCOCC4)c(=O)n3C)n2C1 (stereo not drawn) | 686
29 | COc1ccc2nc(NC(=O)C3CCN(c4nc(-c5ccc(OC)c(OC)c5)no4)CC3)sc2c1 | 933
30 | O=C(Nc1nc(-c2cccs2)cs1)c1ccc2ncsc2c1 | 874
31 | CCc1noc(-c2nnn3c2COC(c2ccc(F)cc2)C3)n1 (stereo not drawn) | 960
32 | O=C(NC1CC1)C1CCc2sc(C(=O)N3CCCCC3)cc2C1 (stereo not drawn) | 711
33 | O=C(c1ccc2c(c1)CCC(=O)N2Cc1ccccc1)N1CCN(c2ccc(F)cc2)CC1 | 923
34 | Cc1cc(C)n2cc(CSc3nc4cc([N+](=O)[O-])ccc4s3)nc2n1 | 623
35 | Cc1[nH]c2ccccc2c1C(=O)C(=O)N(C)c1ccccc1 | 767
36 | CNC(=O)NC1CCN(c2nc3cccnc3n(Cc3ccc(C)cc3)c2=O)CC1 | 860
37 | COc1cc(F)ccc1-c1ccnc2nc(C(C)C)nn12 | 842
38 | O=C(NCc1ccc2c(c1)OCO2)C1Cn2cccc2C(=O)N1Cc1ccccc1 (stereo not drawn) | 805
39 | O=C(Nc1cccc(Cl)c1)Nc1c(-c2ccc(F)cc2)nc2ccccn12 | 730
40 | CC(C)Cn1cc(CCNC(=O)c2cccc(C(F)(F)F)c2)c2cccnc21 | 940

Row | SMILES | RP-LC retention time [s]
41 | CCCCN(C)C(=O)c1sc(Nc2ccccn2)nc1C | 777
42 | COc1ccccc1-c1nnc(N)s1 | 598
43 | COc1ccc(OC)c(NC(=O)C2CCCN(c3ncnc4c3nc3n4CCCCC3)C2)c1 (stereo not drawn) | 815
44 | COc1ccc(-c2nc3cnccn3c2Nc2ccc(C(=O)NCc3ccco3)cc2)cc1OC | 682
45 | Cc1ccc(-c2ncccc2CNS(=O)(=O)c2ccc(Br)s2)cc1 | 786
46 | Cn1nccc1C(=O)N1CCc2c([nH]c3ccccc23)C1c1ccc(F)cc1 (stereo not drawn) | 995
47 | COC(=O)c1cccc(Nc2c(-c3ccc([N+](=O)[O-])cc3)nc3cnccn23)c1 | 839
48 | Cc1cc(C)n(Cc2nc(-c3ccc(NC(=O)c4ccc(C)s4)cc3)oc2C)n1 | 955
49 | CCCCNC(=O)C1CCC(=O)N(c2cc(OC)c(OC)c(OC)c2)C1c1ccc(OC)cc1 (stereo not drawn) | 709
50 | CC(C)Cc1ccc([C@H](C)C(=O)O)cc1 | 1040
51 | COc1ccc(C2C(=O)N(CCc3ccccc3)CC(=O)N2Cc2ccc3c(c2)OCO3)cc1 (stereo not drawn) | 933
52 | COCCn1nc2n(c1=O)CCC1(CC2)CCN(C(=O)C2CC=CC2)CC1 | 658
53 | COC(=O)c1ccc(Cn2cnc3nc4c(cc3c2=O)CC(C)CC4)cc1 (stereo not drawn) | 852
54 | COc1ccc(-n2ncc3c(=O)n(Cc4nc(-c5ccc(C)cc5)no4)cnc32)cc1 | 1030
55 | O=C([C@@H]1C[C@H](F)CN1S(=O)(=O)c1cccc(C(F)(F)F)c1)N1CCCCC1 | 878
56 | C=CCN(CC=C)c1nc(-c2ccc([N+](=O)[O-])cc2)nc2ccccc12 | 1060
57 | CCN1C(=O)COc2ccc(-c3nc(NC(=O)c4cccc(Cl)c4)sc3C)cc21 | 1110
58 | COc1ccc(NC(=O)CN2CCc3[nH]c4c(F)c(Cl)ccc4c(=O)c3C2)c(OC)c1 | 637
59 | CCOC(=O)CC1(NC(=O)N2CCN(c3nc4ccccc4n3C)CC2)CCCCC1 | 593
60 | CCNc1cc(N2CCC(CCC(=O)NCc3cc(F)ccc3F)CC2)ncn1 | 666

The next lines start with the values.

Row | RP-LC retention time [s] | SMILES
61 | 639 | CC(C)n1c(CCNC(=O)c2ccc(C#N)cc2)nc2cccnc21
62 | 1170 | Cc1cccc(-c2nc(C3CCN(S(=O)(=O)c4cccc(F)c4)CC3)no2)c1
63 | 972 | CCc1ccc(C2=Nc3cccnc3N(CC(=O)Nc3ccc(C(C)=O)cc3)C(=O)C2)cc1
64 | 597 | CCCNC(=O)N1CCN(Cc2nc3cccnc3n2-c2ccccc2)CC1
65 | 774 | CCOC(=O)c1[nH]c(C)c(CCC(=O)N2CCC(C(=O)N3CCCCCC3)CC2)c1C
66 | 880 | Cc1csc(-c2cc(S(=O)(=O)Nc3ccc(F)cc3F)cn2CC(=O)N2CCCC2)n1
67 | 993 | CN(c1nc(-c2ccc([N+](=O)[O-])cc2)nc2ccccc12)C1CCCCC1
68 | 712 | O=C(NCc1ccccn1)c1nnn(Cc2ccccc2Cl)c1-n1cccc1
69 | 606 | CN1CCC(NC(=O)c2ccc(-c3nnc4ccc(NC(=O)C5CCC5)cn34)cc2)CC1
70 | 895 | CCCCN(C(=O)c1noc2c1CC(C)CC2)C1CCN(C(C)=O)CC1 (stereo not drawn)
71 | 804 | CCOc1cc(S(=O)(=O)Nc2cccc3cn[nH]c23)ccc1Br
72 | 812 | Cc1cccc(NC(=O)Nc2nc(C)c(C(=O)NC3CCCC3)s2)c1
73 | 736 | CC(C)NC(=O)c1ccc2c(c1)Sc1ncccc1C(=O)N2C(C)C
74 | 749 | Cc1ccc(CNC(=O)CCc2nnc3c4cc(-c5ccccc5)nn4ccn23)o1
75 | 661 | Cc1ccc2c(=O)c3c([nH]c2c1C)CCN(CC(=O)Nc1cccc(Cl)c1C)C3
76 | 758 | O=C(CSc1nnc2c3sc(N4CCCC4)nc3ncn12)Nc1ccc2c(c1)OCCO2
77 | 995 | Cn1cc(C(=O)NC2CCCCCC2)c2nn(-c3ccccc3)c(=O)c-2c1
78 | 582 | O=C(NCCCN1CCCC1=O)C1CCN(c2cncnc2N2CCCCC2)CC1
79 | 681 | CN(Cc1ccccc1)C(=O)c1cc2c(n1C)CCN(Cc1cccc(F)c1)C2
80 | 648 | CC(NC(=O)C1CCN(c2cncnc2N2CCCC2)CC1)c1ccc(F)cc1 (stereo not drawn)
81 | 873 | CCc1cccc(C)c1Nc1c(-c2ccc(OC)cc2)nc2cnccn12
82 | 707 | O=C(c1ccc(Cn2cncn2)cc1)N1CCN(c2ccccc2)CC1
83 | 638 | COc1ccccc1NC(=O)CN1CCc2[nH]c3c(OC)ccc(Cl)c3c(=O)c2C1
84 | 867 | CN(Cc1ccccc1)C(=O)C1CCN(S(=O)(=O)Cc2ccccc2)CC1
85 | 713 | CCCC(NC(=O)Cc1ccccc1Cl)C(=O)Nc1nc2ccccc2[nH]1 (stereo not drawn)
86 | 677 | O=C(Cc1c[nH]c2ncccc12)NCc1ccc(C(F)(F)F)cc1
87 | 1030 | O=[N+]([O-])c1cccc(-c2nc(N3CCCCCC3)c3ccccc3n2)c1
88 | 819 | COc1ccc(C(=O)N2CCC3(CC2)N=C(c2ccc(Cl)cc2)NO3)cc1F
